“Also recorded” adds a separate entry of the source.
What was measured:
Assay type in all cases: cell-based
[1] = target: T1, calcium channels in vascular tissue (Rattus norvegicus, UniProt P22002); test: Contractile response of rat aorta to the calcium agonist BayK 8644; settings: for inhibition of the contraction to BayK 8644: absence of an intact endothelium, 10 mM KCl prior to BayK 8644 (FIGS. 7 and 8)
T1 construct: BayK 8644-induced contraction
From the text: (§1) Male Wistar rats (250-350 g; Charles River Laboratories, Portage, Mich.) were sacrificed by cervical dislocation. The aorta was removed and cleaned of extraneous tissue and cut into ring segments, each approximately 4-5 mm long. In some tissues, endothelium was removed by rotating the ring segment around the tip of a forceps 10 times. Lack of tissue relaxation to acetylcholine (10^-6 M) after contraction with norepinephrine (10^-7 M) was used as evidence for denuded endothelium. Tissues with an intact endothelium relaxed to acetylcholine with 88.5±1.6% (n-11) relaxation.
Ring segments were placed between two stainless steel hooks and mounted in isolated organ baths containing 10 ml of modified Krebs' bicarbonate buffer of the following composition (mM): NaCl, 118.2; KCl, 4.6' CaCl2.2H2 O, 1.6; KH2 PO4, 1.2; MgSO4, 1.2; glucose, 10; and NaHCO3, 24.8. Organ bath solutions were aerated with 95% O2 /5% CO2 and maintained at 37° C. Tissues were placed under an optimal force of 4 grams and equilibrated for one hour with washes every 15 minutes. Changes in force were recorded and analyzed by a Biopac MP100 (World Precision Instruments, Sarasota, Fla.) data acquisition system via Sensotec (model MBL 5514-02) transducers (Sensotec Inc. Columbus, Ohio).
All tissues were initially challenged with KCl (67 mM) to establish viability. Concentration-response curves were generated in a cumulative fashion and are reported as a percentage of an initial KCl contraction (67 mM) produced in each tissue. Vehicle, β-estradiol, 14 or 16 were added to the tissues 60 minutes prior to initiating the concentration-response curves to agonists. In studies with BayK 8644, tissues were exposed to 10 mM KCl prior to initiating the concentration-response curves for BayK 8644. Only one agonist concentration-response curve was generated in each tissue. All results are expressed as mean±SE where n represents the number of rings examined. […]

rat aorta [2] = test: Contractile responses of rat aortic rings to norepinephrine, serotonin and U46619 (isolated organ bath); settings: for inhibitory effect on contractile responses to norepinephrine, serotonin, and U46619: summary in discussion; for dependence of the inhibition of contractile responses on the endothelium: rat aortic rings with versus without intact endothelium
From the text: Male Wistar rats (250-350 g; Charles River Laboratories, Portage, Mich.) were sacrificed by cervical dislocation. The aorta was removed and cleaned of extraneous tissue and cut into ring segments, each approximately 4-5 mm long. In some tissues, endothelium was removed by rotating the ring segment around the tip of a forceps 10 times. Lack of tissue relaxation to acetylcholine (10^-6 M) after contraction with norepinephrine (10^-7 M) was used as evidence for denuded endothelium. […] Tissues were placed under an optimal force of 4 grams and equilibrated for one hour with washes every 15 minutes. […] All tissues were initially challenged with KCl (67 mM) to establish viability. Concentration-response curves were generated in a cumulative fashion and are reported as a percentage of an initial KCl contraction (67 mM) produced in each tissue. Vehicle, β-estradiol, 14 or 16 were added to the tissues 60 minutes prior to initiating the concentration-response curves to agonists. […] Only one agonist concentration-response curve was generated in each tissue. All results are expressed as mean±SE where n represents the number of rings examined.

rat aorta [3] = test: Endothelium integrity: relaxation to acetylcholine after contraction with norepinephrine; settings: acetylcholine 10^-6 M after contraction with norepinephrine 10^-7 M, tissues with intact endothelium, n-11
From the text: as §1

[4] = 10^-6 and 10^-5 M, rat aorta with and without intact endothelium, added 60 minutes prior to agonist

T1 sequence (P22002 whole entry): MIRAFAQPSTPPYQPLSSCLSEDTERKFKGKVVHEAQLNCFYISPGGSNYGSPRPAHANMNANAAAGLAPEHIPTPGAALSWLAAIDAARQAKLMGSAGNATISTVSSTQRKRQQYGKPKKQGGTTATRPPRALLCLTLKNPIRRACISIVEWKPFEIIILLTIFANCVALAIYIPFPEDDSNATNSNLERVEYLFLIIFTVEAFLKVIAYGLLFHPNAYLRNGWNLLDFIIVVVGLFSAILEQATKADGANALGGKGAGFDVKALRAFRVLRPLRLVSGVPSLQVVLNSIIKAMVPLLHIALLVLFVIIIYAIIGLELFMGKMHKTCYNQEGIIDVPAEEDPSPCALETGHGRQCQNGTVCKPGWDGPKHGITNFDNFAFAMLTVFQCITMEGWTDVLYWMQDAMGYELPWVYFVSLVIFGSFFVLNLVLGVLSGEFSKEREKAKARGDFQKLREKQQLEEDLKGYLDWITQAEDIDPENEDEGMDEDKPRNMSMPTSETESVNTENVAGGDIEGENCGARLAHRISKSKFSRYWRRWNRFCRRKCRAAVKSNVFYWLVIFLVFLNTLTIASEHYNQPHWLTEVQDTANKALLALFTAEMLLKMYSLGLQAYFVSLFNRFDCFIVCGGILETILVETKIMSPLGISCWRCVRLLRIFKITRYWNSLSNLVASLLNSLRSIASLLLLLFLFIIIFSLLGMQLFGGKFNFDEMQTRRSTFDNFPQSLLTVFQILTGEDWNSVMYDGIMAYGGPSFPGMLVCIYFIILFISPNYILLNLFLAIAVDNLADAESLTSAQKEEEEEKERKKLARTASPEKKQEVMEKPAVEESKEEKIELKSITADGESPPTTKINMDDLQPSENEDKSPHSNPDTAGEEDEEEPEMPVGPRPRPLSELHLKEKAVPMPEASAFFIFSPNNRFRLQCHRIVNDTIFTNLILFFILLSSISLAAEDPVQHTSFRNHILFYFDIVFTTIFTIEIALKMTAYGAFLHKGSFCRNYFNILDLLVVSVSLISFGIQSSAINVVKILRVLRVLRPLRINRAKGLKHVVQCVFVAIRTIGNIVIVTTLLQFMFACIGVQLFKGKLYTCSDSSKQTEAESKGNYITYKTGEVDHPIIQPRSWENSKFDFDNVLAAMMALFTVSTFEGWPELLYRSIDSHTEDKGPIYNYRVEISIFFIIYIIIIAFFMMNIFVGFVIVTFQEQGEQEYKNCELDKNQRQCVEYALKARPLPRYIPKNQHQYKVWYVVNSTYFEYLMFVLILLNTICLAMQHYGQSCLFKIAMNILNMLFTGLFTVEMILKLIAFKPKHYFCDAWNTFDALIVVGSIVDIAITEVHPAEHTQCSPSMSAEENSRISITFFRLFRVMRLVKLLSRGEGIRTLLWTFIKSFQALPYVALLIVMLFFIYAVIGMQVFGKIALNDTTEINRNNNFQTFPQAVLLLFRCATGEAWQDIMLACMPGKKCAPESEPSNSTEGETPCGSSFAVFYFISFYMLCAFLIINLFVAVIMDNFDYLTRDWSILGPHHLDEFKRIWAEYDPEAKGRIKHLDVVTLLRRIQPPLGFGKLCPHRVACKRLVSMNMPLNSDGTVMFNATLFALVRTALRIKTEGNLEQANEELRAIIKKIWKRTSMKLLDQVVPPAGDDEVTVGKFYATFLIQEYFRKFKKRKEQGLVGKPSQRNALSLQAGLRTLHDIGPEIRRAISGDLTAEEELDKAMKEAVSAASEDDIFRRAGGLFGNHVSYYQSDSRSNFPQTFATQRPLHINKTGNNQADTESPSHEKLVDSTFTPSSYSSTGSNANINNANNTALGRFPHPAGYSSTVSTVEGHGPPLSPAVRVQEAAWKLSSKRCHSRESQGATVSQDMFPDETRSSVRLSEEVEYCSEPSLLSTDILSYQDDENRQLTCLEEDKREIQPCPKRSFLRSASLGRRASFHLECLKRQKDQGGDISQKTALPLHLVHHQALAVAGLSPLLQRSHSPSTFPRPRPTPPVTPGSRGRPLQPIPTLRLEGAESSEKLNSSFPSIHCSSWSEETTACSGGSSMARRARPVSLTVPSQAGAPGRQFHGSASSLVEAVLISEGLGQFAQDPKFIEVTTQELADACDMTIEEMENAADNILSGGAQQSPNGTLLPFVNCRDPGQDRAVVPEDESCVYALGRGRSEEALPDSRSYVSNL

Structure (SMILES) | inhibition of the contraction to BayK 8644 [1] | inhibition of contractile responses to serotonin (rat aorta [2]; rat aorta with and without intact endothelium (FIG. 4), concentration not given) | inhibition of serotonin response compared with norepinephrine response (rat aorta [2]; rat aorta with and without intact endothelium (FIGS. 4 and 5)) | inhibitory effect on contractile responses to norepinephrine, serotonin, and U46619 (rat aorta [2]; rat aorta) | dependence of the inhibition of contractile responses on the endothelium (rat aorta [2]) | percent relaxation to acetylcholine at 1 µM (rat aorta [3]) [%] | relative potency as calcium channel antagonist ([1]; comparison between substances) | inhibition of contractile response to U46619 (rat aorta [2]; [4]) | inhibition of contractile response to norepinephrine (rat aorta [2]; [4]) | inhibition of contractile response to serotonin (rat aorta [2]; [4]) | potency in inhibiting contraction to serotonin relative to norepinephrine or U46619 (rat aorta [2]; rat aorta)
O=C(c1ccc(OCCN2CCCCC2)cc1)c1c(-c2ccc(O)cc2)sc2cc(O)ccc12 [Compound 14, 6-hydroxy-2-(4-hydroxyphenyl)-3-[4-(2-piperidinoethoxy)benzoyl]benzo[b]thiophene] | inhibition of the contraction to BayK 8644 occurred | inhibited | greater than with norepinephrine | marked inhibitory effect | independent of an intact endothelium |  |  |  |  |  | 
CC(=O)OCC[N+](C)(C)C [acetylcholine] |  |  |  |  |  | 88.5 ± 1.6 |  |  |  |  | 
O=C(c1ccc(OCCN2CCCC2)cc1)c1c(-c2ccc(O)cc2)sc2cc(O)ccc12 [Compound 16, 6-hydroxy-2-(4-hydroxyphenyl)-3-[4-(2-pyrrolidinoethoxy)benzoyl]benzo[b]thiophene] | inhibition of the contraction to BayK 8644 occurred |  |  | marked inhibitory effect | appeared independent of the endothelium |  | considerably more potent as a calcium channel antagonist than 14; also recorded: more potent calcium channel antagonist in vascular tissue than estrogen | potently inhibited | potently inhibited | potently inhibited | more potent in inhibiting the contractile response to serotonin relative to norepinephrine or U46619

Reference: patent publication US5840747A, “Calcium channel antagonists” (Eli Lilly and Company, priority 1995, dated 1998)
